Experiment [1] concerns the target T1, α1A-adrenergic receptor (Homo sapiens, UniProt P35348).
T1 sequence (P35348 1-466): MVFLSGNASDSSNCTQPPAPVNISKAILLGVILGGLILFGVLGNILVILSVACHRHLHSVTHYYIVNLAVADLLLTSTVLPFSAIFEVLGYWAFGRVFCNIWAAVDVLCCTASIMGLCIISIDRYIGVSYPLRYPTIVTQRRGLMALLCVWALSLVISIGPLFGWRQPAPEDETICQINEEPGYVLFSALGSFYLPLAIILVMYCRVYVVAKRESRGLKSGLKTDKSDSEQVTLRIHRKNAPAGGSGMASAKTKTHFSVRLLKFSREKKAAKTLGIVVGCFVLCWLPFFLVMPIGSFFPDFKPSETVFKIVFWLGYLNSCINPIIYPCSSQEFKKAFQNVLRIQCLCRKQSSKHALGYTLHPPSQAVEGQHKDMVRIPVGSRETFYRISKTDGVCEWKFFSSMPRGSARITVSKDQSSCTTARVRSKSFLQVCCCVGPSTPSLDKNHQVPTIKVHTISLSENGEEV
Particulars: as compared to noradrenaline; InsPs accumulation assay; Blue et al., Table 1; cited from earlier work.

Experiment [2] addresses T1, α1A-adrenergic receptor. The settings on record: as compared to noradrenaline; FLIPR assay; Blue et al., Table 1; cited from earlier work.
For experiment [3], the target named is T2, α1A-ARs (Homo sapiens, UniProt P35348).
T2 sequence (P35348 1-466): T1 sequence (P35348 1-466)
In words: Calcium flux assay (Calcium 6 dye) in cells expressing an α1-AR. It is filed as cell-based. Particulars: for EC50: read-out: Average pEC50 (converted); for Emax: read-out: Average Emax (% epi). An excerpt:
Calcium flux experimental design: alpha-1 adrenergic receptors (α1-ARs) couple to Gq proteins, which results in downstream activation of phospholipase C and release of calcium from intracellular stores. Intracellular calcium increase upon α1-AR activation can be detected by Calcium 6 dye.
Cell preparation: cells expressing an α1-AR were washed in warmed phosphate-buffered saline to remove medium and harvested using versene (Caisson Labs, catalog #EDL01).
Media was removed from cells by tapping plates upside-down on absorbent wipes, followed by 15 second upside-down 50×g centrifugation, again on absorbent wipes. 12 μL cell dye solution was added to cells using a reagent dispenser (Integra viaFILL) and cells were incubated for 90 minutes at 37° C., 5% CO2.
Compound preparation: candidate alpha-adrenergic compounds, dissolved to 10 mM in DMSO, were diluted in assay buffer (HBSS/HEPES containing 2 mM CaCl2) and 2 mM probenecid sodium salt). […] On all assay plates, vehicle (DMSO) and positive control (10 μM epinephrine) conditions were included on the plate, as well as a dose-response curve of epinephrine. […] 384 well compound plates were centrifuged briefly at 250×g, sealed (Axygen PCR-SP) and incubated at 37° C. until the 90 minute cell dye incubation was complete.
Calcium 6 stained cells and 384 well compound plates were loaded onto the Flexstation and incubated on the machine for 5 minutes before initiating the assay.
For each assay well, baseline Calcium 6 fluorescence was detected for 18 seconds prior to 12 μL compound addition at 12 μL per second. Changes in Calcium 6 fluorescence were detected for a further 22 seconds, for a total read time of 40 seconds. All detection was performed with medium gain sensitivity, bottom read, with 6 flashes per read.
Data analysis: for calcium flux, analysis of maximum change from baseline over the 40-second read time was determined using Softmax Pro and data was exported as raw text files. Potency estimates (EC50) were derived from dose response curves (maximum change from baseline versus the log concentration of test compound) fit by four-parameter nonlinear regression using Graphpad Prism. Efficacy was determined by comparing the magnitude of the test compound signal window (fitted curve max−min) with the signal window of the full agonist control, epinephrine. […] All experiments were repeated a minimum of three times, with the average (mean) potency and maximum effect relative to the within-plate full agonist dose-response comparator reported.

[4] abbreviates: α1A-AR calcium flux, mean of at least three experiments.
Where [5] appears, read: α1A-AR calcium flux, relative to full agonist epinephrine, mean of at least three experiments.

Counter-ions that a name gives are not always drawn. Like-named read-outs stand apart in the source and are kept apart here.

As for `Cc1c(OCC2=NCCN2)ccc(Cl)c1NS(C)(=O)=O` [RO 115-1240 (dabuzalgron) HCl salt, dabuzalgron], the intrinsic activity in experiment [1] is on record as 0.27; in experiment [2], 0.51.

Regarding `Cc1c(OCC2=NCCN2)ccc(Cl)c1NS(C)(=O)=O` [RO 115-1240 (dabuzalgron) free base, dabuzalgron], in experiment [1], the intrinsic activity was 0.31.

Consider `Clc1nn(CC2=NCCN2)c2c(N3CCCCC3)cccc12` [Compound 70], for which the EC50 in experiment [3] (setting [4]) is 10 to 977 nM. Further, the Emax (in general, the maximal effect, on the per cent scale that the assay sets) in experiment [3] (setting [5]) lay within 21 to 60%.

In the case of `N#Cc1cn(CC2=NCCN2)c2c(Cl)cccc12` [Compound 18], the maximal response (Emax) in experiment [3] is over 61%. Also, in experiment [3] (setting [4]), the EC50 was 10 to 977 nM.

Turning to `Clc1cccc2c(N3CCCC3)nn(CC3=NCCN3)c12` [Compound 56], the EC50 in experiment [3] (setting [4]) is over 1000 nM. In addition, the Emax in experiment [3] (setting [5]) was under 20%.

Take `Cc1cc(F)cc2c(N3CCCC3)nn(CC3=NCCN3)c12` [Compound 77]: the EC50 in experiment [3] (setting [4]) is 10 to 977 nM. Moreover, the Emax in experiment [3] (setting [5]) lay in the range of 21 to 60%.

Take `Cc1cn(CC2=NCCN2)c2c(Cl)cccc12` [Compound 17]: the Emax in experiment [3] is over 61%. For the same molecule, the EC50 in experiment [3] (setting [4]) is under 9.77 nM.

With `FC(F)(F)Oc1cccc2c(Cl)nn(CC3=NCCN3)c12` [Compound 37], the EC50 in experiment [3] (setting [4]) is 10 to 977 nM. In addition, the maximal effect (Emax) in experiment [3] (setting [5]) was over 61%.

Consider `CC(F)(F)c1cccc2c(N3CCCC3)nn(CC3=NCCN3)c12` [Compound 74], for which, in experiment [3] (setting [4]), the EC50 was over 1000 nM. For the same molecule, the Emax in experiment [3] (setting [5]) lay in the range of 21 to 60%.

Turning to `Fc1cc(F)c2c(c1)c(C1CC1)cn2CC1=NCCN1` [Compound 11], in experiment [3], the Emax was over 61%. In experiment [3] (setting [4]), the EC50 is under 9.77 nM.

As to `Clc1ccc2c(c1)c(Cl)nn2CC1=NCCN1` [Compound 31], in experiment [3], the maximal response (Emax) lay within 21 to 60%. Besides, in experiment [3] (setting [4]), the EC50 was over 1000 nM.

For the molecule `Fc1cccc2c(Cl)nn(CC3=NCCN3)c12` [Compound 26], the maximum response (Emax) in experiment [3] was 21 to 60%. In addition, in experiment [3] (setting [4]), the EC50 was 10 to 977 nM.

`Clc1nn(CC2=NCCN2)c2c(-c3ccccn3)cccc12` [Compound 48]: the EC50 in experiment [3] (setting [4]) is 10 to 977 nM. Besides, the maximal response (Emax) in experiment [3] (setting [5]) was in the range of 21 to 60%.

For the molecule `CC(C)c1cccc2c(Cl)nn(CC3=NCCN3)c12` [Compound 47], the maximum response (Emax) in experiment [3] is over 61%. Moreover, the EC50 in experiment [3] (setting [4]) is 10 to 977 nM.

The record behind these values is US20250188060A1, “ALPHA1A-ADRENERGIC RECEPTOR AGONISTS AND METHODS OF USE” (CuraSen Therapeutics, Inc., priority 2022, published 2025).
